The values that follow come from patent US6117859A, “Method of relieving chronic inflammation by using 5-alkylsulfonylsalicylanilides” (The Research Foundation of State University of New York, priority 1999, dated 2000).

In data set [1] the test system is ear weight gain produced by multiple doses of TPA in mice. Kind of data set: Chronic (multiple dose) TPA mouse ear inflammation assay, ear weight gain. The following applies: for % Inhibition of Ear Weight Gain, Relative to Hydrocortisone (HCV) = 100%: head prints 1.25 eg/ear; for Decrease in weight relative to TPA treated biopsies: 20 μg HCV/ear. The data set is classed as in vivo, mouse (female CD-1). As to the method:
The acute skin inflammation model described in Example 1, tests the ability of a compound to prevent inflammation and thus must be applied prophylactically. Most clinical situations, however, are present as chronic inflammatory conditions. […] The effects of the compounds of the present invention and Salifluor on chronically inflamed skin was measured in the mouse ear model that utilizes multiple TPA doses over a 10-day period to produce the inflammatory response.
The assay used female CD-1 mice (7-9 weeks of age). Following a 2-week quarantine, mice were randomly assigned to test groups (5 mice/groups). TPA (10 uL of 0.01 TPA in acetone) was administered to both the inner and outer surface of each ear (2μg/ear) on day 0,2,4,7, and 9 on protocol. On Day 7,8 and 9, two applications of test article were applied to each ear 2 and 4 hours after dosing with TPA. The test articles were administered in 10 uL aliquots to both the inner and outer surface of each ear (20 μl total/dose). […] Hydrocortisone-17-valerate (HCV, 20μg/ear) was employed as a positive control. Mice were sacrificed at Day 10 on protocol and uniform punch biopsies (approximately 8 mm dia.) were taken from each ear. While on protocol, dermal irritation was scored semiquantitatively at Day 1,3,5,8, and 10.
(§1) Inhibition of TPA stimulated increased ear weight was used as an initial measure of efficacy for all of the agents tested. One biopsy from each mouse was also quick frozen and stored at -70° C. for later assay of myleoperoxidase, an enzyme associated with infiltrating PMN, or other measure of efficacy. The remaining biopsy from each mouse treated with Trifluorosal or HCV was fixed in formalin and processed for histopathologic evaluation, including measurement of cellular infiltration (PMNs, endothelial cells, macrophages) and epidermal thickness at 20 random sites along the length of the specimen.
Initially, a dose-response curve for multiple doses of TPA to produce mouse ear weight gain was generated in order to determine the concentration of TPA to be employed in the inhibition studies. […] Another major difference between the multiple TPA dose (or chronic assay for inflammation) and the single TPA dose (or acute assay for inflammation) in the mouse ear is sensitivity to Non-steroidal antiinflammatory drugs (NSAIDs) and antihistamines.

Data set [2] in a line: Single dose oral tolerance in rats. It counts as in vivo, rat (male weaning Sprague-Dawley). The following applies: single dose 2.5 or 0.75 g/kg in 5% CMC, 7 days. The protocol: To test for tolerance of the administered compounds, male weaning Sprague-Dawley rats were fed in a single dose of 2.5 or 0.75 g/kg of TMF-12, TMF-10, TMC-10 or TPC-10 in 5% carboxymethyl cellulose (CMC) or CMC alone. […] At completion of the 7 day observation period, necropsies were performed on all animals.

The nature of data set [3]: Solubility of representative compounds in various solvent systems. The data set is classed as physicochemical. As to the method:
The solubility of representative compounds of this invention in various solvent systems was determined. The solvents included ethanol, propylene glycol, SLS, Tween 80™ and combinations thereof.

The test system of data set [4] is ear weight gain produced by multiple doses of TPA in mice. The settings on record: cited from earlier work.
The subject of data set [5] is TPA induced mouse ear edema. The settings on record: cited from earlier work.
The conditions of data set [6]: in vivo; cited from earlier work.
The test system of data set [7] is TPA induced mouse ear edema. Kind of data set: Acute TPA mouse ear inflammation assay, edema (ear weight). The data set is classed as in vivo. An excerpt:
The anti-inflammatory effect of selected compounds of this invention were compared to those of Triclosan™ and hydrocortisone in a modified […] (TPA) mouse ear inflammation assay. TPA was used as an inflammogen rather than croton oil because TPA gives a well characterized inflammatory response at very low concentrations. […] This model can therefore be used to study the pharmacokinetics, clinical efficacy and adverse side effects of anti-inflammatory agents. To quantitate inflammation, ear punches from treated animals were used to measure increased ear mass (edema) and myeloperoxidase (MPO) activity. For the inhibition studies, ear biopsies were weighed six hours after treatment with TPA and the simultaneous application of the compound of the present invention. All the compounds were diluted in acetone. Following this, the biopsies were frozen and subsequently used to measure inhibition of MPO activity, an estimate of polymorphonuclear (PMN) […] activity in the affected area. Percent inhibition of edema was calculated as [c-t]/c x 100, where c and t are increases in ear weight in control and treated mice, respectively.
Initially a dose-response curve for TPA-induced mouse ear edema was generated in order to determine the concentration of TPA to be employed in the inhibition studies. TPA produced a theoretical dose-response curve for edema with an ED50 of 80 ng/ear and an ED90 of 200 ng/ear in two separate experiments. ED50 is the dose at which 50% of the maximum effect was observed while ED90 is the dose at which 90% of the maximum effect was observed. […] The ED50 values for the compounds tested are as follows: […]

Data set [8] concerns TPA treated mouse ear skin. Kind of data set: Histopathology of ear biopsies after multiple doses of TPA (epidermal thickness, dermal cellularity). It counts as in vivo, mouse (female CD-1). The protocol: The assay used female CD-1 mice (7-9 weeks of age). Following a 2-week quarantine, mice were randomly assigned to test groups (5 mice/groups). TPA (10 uL of 0.01 TPA in acetone) was administered to both the inner and outer surface of each ear (2μg/ear) on day 0,2,4,7, and 9 on protocol. On Day 7,8 and 9, two applications of test article were applied to each ear 2 and 4 hours after dosing with TPA. The test articles were administered in 10 uL aliquots to both the inner and outer surface of each ear (20 μl total/dose). The candidate drugs were tested at several different concentrations (e.g., 5, 1.25, and 0.125 mg/ear) to determine a maximum effective dose within a range that could be effectively applied. Hydrocortisone-17-valerate (HCV, 20μg/ear) was employed as a positive control. Mice were sacrificed at Day 10 on protocol and uniform punch biopsies (approximately 8 mm dia.) were taken from each ear. While on protocol, dermal irritation was scored semiquantitatively at Day 1,3,5,8, and 10.
as §1
In order to confirm the subjective observations, quantitative determinations of 3 parameters (epidermal thickness, dermal thickness, and dermal cellularity) in the skin of negative controls (acetone), positive controls (TPA), and TPA treated skin treated with 3 doses of test article (Trifluorosal) and hydrocortisone were carried out. Epidermal thickness reflects the reactive proliferative activity induced by TPA in the […]: dermal thickness reflects primarily Ad edema but may also be affected by other phenomena, such as formation of granulation tissue, collagen synthesis, the activity of myofibroblasts, etc. Cellularity of the dermis is frequently used as a surrogate marker of inflammatory changes in the dermis.
Determination of the epidermal thickness was performed under the microscope with a calibrated scale placed in the eyepiece. Ten determinations were carried out in the epidermis covering the outside of the ear using a 40× objective and a 10× eyepiece (400× total). The measurements were taken from the basal side of the basal layer (basement membrane) to the outer side of the last nucleated cell of the […]. The average of the 10 measurements expressed in microns was entered in the table.
Determination of dermal thickness was performed using a similar technique. To avoid variability caused by the difference in sizes between the base and tip of the ear, only 3 measurements were performed in the center of the sample. The measurements were performed from the basement membrane of the external and internal epithelial and therefore include, in addition to both dermis (external and internal), the cartilage.
Cellularity of the dermis was calculated by projecting a calibrated grid into the dermis and counting cells in the known area of the dermis. Areas of hair follicles or sebaceous glands were avoided. Five fields were counted and the results were adjusted to the number of cells in 1,000 square microns.
The results of individual animals were entered in the table and the averages and standard deviation were calculated using an EXCEL database. In addition, the results were also expressed as a percentage of the control (acetone treated). Furthermore, the percentage of inhibition of the test articles were calculated using the following formula: [formula]

Where [9] appears, read: aqueous buffer, pH 10 K-buffer @ 35° C.
The mark [10] stands for this setting: aqueous buffer, pH 10 Na-buffer @ 22° C.
Where [11] appears, read: organic solvent or mixture, Ethanol @ 19° C.
Setting [12] is: organic solvent or mixture, Propylene Glycol @ 20° C.
Where [13] appears, read: ph 10 na-buffer +0.5% sls, pH 10 Na-buffer @ 22° C. +0.5% SLS.
[14] abbreviates: inflammogen dose-response, two separate experiments, 6 hours.

By solubility is commonly meant how much of the substance goes into solution per volume. In the case of `CCCCCCCCCCS(=O)(=O)c1ccc(O)c(C(=O)Nc2ccc(C#N)cc2)c1` [TPC-10], the “% Inhibition of Ear Weight Gain, Actual” value in data set [1] (multiple doses of TPA) was 0%. In data set [1] (multiple doses of TPA), the “% Inhibition of Ear Weight Gain, Relative to Hydrocortisone (HCV) = 100%” value is listed as 0%. In data set [2], the Illness or deaths result is listed as “No illness or deaths occurred”. Besides, the solubility amounted to 0.69 mg/mL in data set [3] (+1% sls); 0.91 mg/mL in data set [3] (+2% sls); 1.81 mg/mL in data set [3] (+4% sls); 0.00345 mg/mL in data set [3] (setting [9]); 0.00916 mg/mL in data set [3] (setting [10]); 11.5 mg/mL in data set [3] (setting [11]). The values for the solubility in data set [3] (setting [12]) and in data set [3] (setting [13]) were 0.81 mg/mL and 0.3 mg/mL, respectively.
With `CN1C(C(=O)Nc2ccccn2)=C(O)c2ccccc2S1(=O)=O` [piroxicam], the “Sensitivity of chronic TPA assay to NSAIDs” value in data set [4] is “insensitive”.
Take `COc1ccc2cc([C@H](C)C(=O)O)ccc2c1` [Naproxen]: the “Inhibition of acute TPA assay by NSAIDs” value in data set [5] is given as “inhibited”.
As to `CCCCCCCCCCS(=O)(=O)c1ccc(O)c(C(=O)Nc2cccc(C#N)c2)c1` [TMC-10], the “% Inhibition of Ear Weight Gain, Actual” value in data set [1] (multiple doses of TPA) is listed as 0%. The “% Inhibition of Ear Weight Gain, Relative to Hydrocortisone (HCV) = 100%” value in data set [1] (multiple doses of TPA) is 0%. Further, the Illness or deaths entry in data set [2] was “No illness or deaths occurred”. For the same compound, the solubility in data set [3] (+0.5% tween 80) was found to be 0.77 mg/mL; in data set [3] (+1% sls) it was 4.27 mg/mL; in data set [3] (+1.5% tween 80) it was 2.24 mg/mL; in data set [3] (+2% SLS + 0.5% Tween 80) it was 3.98 mg/mL; in data set [3] (+2% SLS + 1.0% Tween 80), 4.74 mg/mL; in data set [3] (+2% SLS + 2.0% Tween 80) it was 5.05 mg/mL. In addition, the solubility in data set [3] (+2% sls) was found to be 6.68 mg/mL; in data set [3] (+3.0% tween 80), 4.69 mg/mL; in data set [3] (+4% sls) it was 7.9 mg/mL; in data set [3] (setting [9]), 0.00558 mg/mL; in data set [3] (setting [10]), 0.0072 mg/mL; in data set [3] (setting [11]), 36.7 mg/mL. Moreover, the solubility in data set [3] (setting [12]) was 1.94 mg/mL; in data set [3] (setting [13]), 3.13 mg/mL.
As for `CCCCCCCCS(=O)(=O)c1ccc(O)c(C(=O)Nc2cccc(C(F)(F)F)c2)c1` [TMF-8], in data set [1] (multiple doses of TPA), the “% Inhibition of Ear Weight Gain, Actual” value was 0% and the “% Inhibition of Ear Weight Gain, Relative to Hydrocortisone (HCV) = 100%” value came out at 0%.
Turning to `CC(C)Cc1ccc(C(C)C(=O)O)cc1` (stereo not shown) [Ibuprofen], the “Inhibition of acute TPA assay by NSAIDs” value in data set [5] is listed as “inhibited”.
For the compound `Oc1cc(Cl)ccc1Oc1ccc(Cl)cc1Cl` [Triclosan, 2',4,4'-trichloro-2-hydroxy-diphenyl-ether], the “Anti-inflammatory activity in clinical trials” value in data set [6] is listed as “have been reported to have anti-inflammatory activity in clinical trials”.
As for `CCCCC(=O)O[C@]1(C(=O)CO)CC[C@H]2[C@@H]3CCC4=CC(=O)CC[C@]4(C)[C@H]3[C@@H](O)C[C@@]21C` [Hydrocortisone 17-valerate, Hydrocortisone-17-valerate, reference compound], the entries for the “Decrease in weight relative to TPA treated biopsies” value in data set [1] (Assay #1) and in data set [1] (Assay #2) were 71% and 107%, respectively. For the same compound, the “Inhibition of ear weight gain” value in data set [1] (20μg/ear, first experiment) is recorded as 86%.
For the compound `C[C@]12CCC(=O)C=C1CC[C@@H]1[C@@H]2[C@@H](O)C[C@@]2(C)[C@H]1CC[C@]2(O)C(=O)CO` [Hydrocortisone, reference compound], the “Relative anti-inflammatory potency (in words)” value in data set [7] (acute assay) is “the most potent anti-inflammatory agent tested”. Also, in data set [8] (0.02 mg/ear), the “% Inhibition, Dermal Cellularity” value is listed as 78.6% and the “% Inhibition, Epidermal Thickness” value is given as 58.6%. Further, the “Blood vessel prominence (in words)” value in data set [8] (histopathology) is reported as “Blood vessels were not as prominent”. For the same compound, in data set [8] (histopathology, FIG. 1), the “Cellularity of the dermis (in words)” value was “reduced the epidermal thickness as well as the cellularity of the dermis” and the “Epidermal thickness (in words)” value is given as “reduced the epidermal thickness”.
Turning to `O=C(O)Cc1ccccc1Nc1c(Cl)cccc1Cl` [diclofenac], the “Sensitivity of chronic TPA assay to NSAIDs” value in data set [4] is reported as “insensitive”.
Turning to `CCCCCCCCCCCCCC(=O)O[C@@H]1[C@@H](C)[C@@]2(O)[C@@H](C=C(CO)C[C@]3(O)C(=O)C(C)=C[C@@H]23)[C@@H]2C(C)(C)[C@]12OC(C)=O` [TPA, 12-tetradecanoyl 13-phorbol acetate, reference compound], in data set [1] (multiple doses of TPA), the “Dose of TPA producing maximal ear weight gain” value is on record as 2 μg/ear and the “Dose of TPA with marginal effects on ear weight gain” value is given as “below 1 μg/ear”. Also, in data set [7] (setting [14]), the “ED50 for TPA-induced ear edema” value is reported as 80 ng/ear and the “ED90 for TPA-induced ear edema” value stood at 200 ng/ear. In addition, the “Histopathological change produced by multiple doses of TPA” value in data set [8] (multiple doses of TPA) was “dramatic hyperplasia of the epidermis as well as inflammatory changes in the dermis”.
